Where a name gives a salt, the structure may show the parent alone.
Experiments:
[1] = target: T1, MET (Homo sapiens, UniProt P08581); assay: Test B: inhibition of the autophosphorylation of MET, ELISA technique (pppY1230,1234,1235) in MKN45 cells; format: cell-based; set-up: endogenous in cells; host or cells: MKN45 cells; details: 1 h treatment, phosphoMET ELISA
Protocol: B) Test B: Inhibition of the autophosphorylation of MET; ELISA technique (pppY1230,1234,1235) a) Cell lysates: MKN45 cells are seeded into 96-well plates (cell coat BD polylysine) at 20 000 cells/well in 200 μl in RPMI medium+10% FCS+1% L-glutamine. They are left to adhere for 24 hours in an incubator.
The cells are treated the day after seeding with the products at 6 concentrations, in duplicate, for 1 h. At least 3 control wells are treated with the same final amount of DMSO.
Product dilution: Stock at 10 mM in pure DMSO—range from 10 mM to 30 μM with an increment of 3 in pure DMSO—intermediate dilutions to 1/50 in culture medium and then removal of 10 μl added directly to the cells (200 μl): final range of 10 000 to 30 nM.
At the end of the incubation, the supernatant is carefully removed and rinsing is performed with 200 μl of PBS. Next, 100 μl of lysis buffer are placed directly in the wells on ice and incubated at 4° C. for 30 minutes. Lysis buffer: 10 mM Tris HCl, pH 7.4, 100 mM NaCl, 1 mM EDTA, 1 mM EGTA, 1% Triton X-100, 10% glycerol, 0.1% SDS, 0.5% deoxycholate, 20 mM NaF, 2 mM Na3VO4, 1 mM PMSF and cocktail of antiproteases.
The 100 μl of lysates are transferred into a V-bottomed polypropylene plate and the ELISA is performed immediately, or the plate is frozen at −80° C.
70 μl of kit dilution buffer+30 μL of cell lysate, or 30 μl of lysis buffer for the blanks, are added to each well of the kit plate. Incubation is carried out for 2 h with gentle agitation at ambient temperature.
The wells are rinsed 4 times with 400 μl of kit washing buffer. Incubation is carried out with 100 μl of anti-phospho MET antibody for 1 hour at ambient temperature.
The wells are rinsed 4 times with 400 μl of kit washing buffer. Incubation is carried out with 100 μl of anti-rabbit HRP antibody for 30 minutes at ambient temperature (except for the wells of chromogen alone).
The wells are rinsed 4 times with 400 μl of kit washing buffer. 100 μL of chromogen are introduced and incubation is carried out for 30 minutes in the dark at ambient temperature.
The reaction is stopped with 100 μl of stop solution. The plate is read without delay at […], 0.1 second on a Wallac Victor plate reader.
Target sequence in this assay (P08581 25-1390): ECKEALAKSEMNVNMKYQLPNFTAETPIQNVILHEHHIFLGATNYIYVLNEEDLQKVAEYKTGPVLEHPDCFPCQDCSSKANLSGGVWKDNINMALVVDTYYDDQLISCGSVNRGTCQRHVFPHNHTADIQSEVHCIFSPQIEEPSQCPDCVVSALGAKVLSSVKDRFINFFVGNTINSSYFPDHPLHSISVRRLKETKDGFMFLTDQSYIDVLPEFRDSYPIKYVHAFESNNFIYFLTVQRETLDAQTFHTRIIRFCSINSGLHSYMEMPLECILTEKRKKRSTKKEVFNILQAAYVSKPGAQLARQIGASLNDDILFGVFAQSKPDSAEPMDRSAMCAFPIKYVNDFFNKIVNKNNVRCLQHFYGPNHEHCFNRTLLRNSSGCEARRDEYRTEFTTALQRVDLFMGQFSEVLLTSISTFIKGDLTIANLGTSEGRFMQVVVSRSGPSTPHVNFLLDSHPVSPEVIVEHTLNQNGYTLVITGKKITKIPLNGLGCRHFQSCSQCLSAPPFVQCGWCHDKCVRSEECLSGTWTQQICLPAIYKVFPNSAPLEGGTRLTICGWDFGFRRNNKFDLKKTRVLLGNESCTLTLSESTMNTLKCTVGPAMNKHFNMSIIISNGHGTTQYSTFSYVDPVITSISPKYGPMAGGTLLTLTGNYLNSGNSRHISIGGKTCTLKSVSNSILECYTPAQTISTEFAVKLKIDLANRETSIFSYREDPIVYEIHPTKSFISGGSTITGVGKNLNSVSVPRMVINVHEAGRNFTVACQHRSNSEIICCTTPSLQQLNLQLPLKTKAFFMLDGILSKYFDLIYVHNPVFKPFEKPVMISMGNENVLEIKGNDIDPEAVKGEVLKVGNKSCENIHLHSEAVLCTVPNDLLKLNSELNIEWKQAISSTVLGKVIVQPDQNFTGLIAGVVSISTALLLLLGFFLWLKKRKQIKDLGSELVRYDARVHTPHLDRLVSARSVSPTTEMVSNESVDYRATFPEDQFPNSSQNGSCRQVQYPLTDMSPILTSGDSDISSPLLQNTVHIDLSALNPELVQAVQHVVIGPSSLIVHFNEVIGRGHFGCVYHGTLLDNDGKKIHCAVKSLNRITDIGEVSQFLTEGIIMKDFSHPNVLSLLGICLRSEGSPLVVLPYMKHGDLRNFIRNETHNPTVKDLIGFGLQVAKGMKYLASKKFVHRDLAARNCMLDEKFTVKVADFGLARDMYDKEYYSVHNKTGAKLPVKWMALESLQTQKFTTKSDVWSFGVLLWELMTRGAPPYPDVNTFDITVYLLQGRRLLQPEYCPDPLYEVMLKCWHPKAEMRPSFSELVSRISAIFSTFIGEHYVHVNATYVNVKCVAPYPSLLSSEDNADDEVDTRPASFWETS

[2] = target: T1, MET; assay: Test A: HTRF MET assay in 96-well format; format: biochemical; set-up: The His-Tev-MET (956-1390) recombinant DNA in pFastBac (Invitrogen) is transfected into insect cells; His-Tev (histidine tag with TEV cleavage site) (N, cleaved yes); made in house; host or cells: SF21 insect cells (baculovirus, pFastBac); details: MET 5 nM, 10 μM ATP, poly-(GAT)
Protocol: The His-Tev-MET (956-1390) recombinant DNA in pFastBac (Invitrogen) is transfected into insect cells and, after several viral amplification steps, the final baculovirus stock is tested for the expression of the protein of interest.
After infection for 72 h at 27° C. with the recombinant virus, SF21 cell cultures are harvested by centrifugation and the cell pellets are stored at −80° C.
The cell pellets are resuspended in the lysis buffer (buffer A [50 mM HEPES, pH 7.5, 250 mM NaCl, 10% glycerol, 1 mM TECP]; +cocktail of protease inhibitors, Roche Diagnostics, without EDTA, ref 1873580), stirred at 4° C. until the mixture is homogeneous, and then lysed mechanically using a “Dounce” type apparatus.
After centrifugation, the lysis supernatant is incubated for 2 h at 4° C. with nickel chelate resin (His-Trap 6 Fast Flow™, GE HealthCare). After washing with 20 volumes of buffer A, the suspension is packed into a column, and the proteins are eluted with a gradient of buffer B (buffer A+290 mM imidazole).
The fractions containing the protein of interest, for the purpose of electrophoretic analysis (SDS PAGE), are combined, concentrated by ultrafiltration (10 kDa cut-off) and injected onto an exclusion chromatography column (Superdex™ 200, GE HealthCare) equilibrated in buffer A.
After enzymatic cleavage of the histidine tag, the protein is reinjected onto a new IMAC nickel chelate chromatography column (His-Trap 6 Fast Flow™, GE HealthCare) equilibrated in buffer A. The fractions eluted with a gradient of buffer B and containing the protein of interest after electrophoresis (SDS PAGE) are finally combined and stored at −80° C.
For the production of autophosphorylated protein, the previous fractions are incubated for 1 h at ambient temperature after the addition of 2 mM ATP, 2 mM MgCl2 and 4 mM Na3VO4. After the reaction has been stopped with 5 mM of EDTA, the reaction mixture is injected onto a HiPrep desalifying column (GE HealthCare) pre-equilibrated in buffer A+4 mM Na3VO4, and the fractions containing the protein of interest (SDS PAGE analysis) are combined and stored at −80° C. The degree of phosphorylation is verified by mass spectrometry (LC-MS) and by peptide mapping.
MET at a final concentration of 5 nM is incubated in a final volume of 50 μl of enzymatic reaction in the presence of the test molecule (for a final concentration range of from 0.17 nM to 10 μM, 3% DMSO final concentration) in 10 mM MOPS buffer, pH 7.4, 1 mM DTT, 0.01% Tween 20. The reaction is initiated with the substrate solution to obtain final concentrations of 1 μg/ml poly-(GAT), 10 μM ATP and 5 mM MgCl2. After incubation for 10 min at ambient temperature, the reaction is stopped with a 30 μl mix so as to obtain a final solution of 50 mM Hepes, pH 7.5, 500 mM potassium fluoride, 0.1% BSA and 133 mM EDTA in the presence of 80 ng of streptavidin 61SAXLB Cis-Bio Int. and 18 ng of anti-phosphotyrosine Mab PT66-Europium Cryptate per well. After incubation for 2 hours at ambient temperature, the reading is taken at 2 wavelengths, 620 nm and 665 nm, on a reader for the TRACE/HTRF technique, and the % inhibition is calculated from the 665/620 ratios.
Target sequence in this assay (P08581 956-1390): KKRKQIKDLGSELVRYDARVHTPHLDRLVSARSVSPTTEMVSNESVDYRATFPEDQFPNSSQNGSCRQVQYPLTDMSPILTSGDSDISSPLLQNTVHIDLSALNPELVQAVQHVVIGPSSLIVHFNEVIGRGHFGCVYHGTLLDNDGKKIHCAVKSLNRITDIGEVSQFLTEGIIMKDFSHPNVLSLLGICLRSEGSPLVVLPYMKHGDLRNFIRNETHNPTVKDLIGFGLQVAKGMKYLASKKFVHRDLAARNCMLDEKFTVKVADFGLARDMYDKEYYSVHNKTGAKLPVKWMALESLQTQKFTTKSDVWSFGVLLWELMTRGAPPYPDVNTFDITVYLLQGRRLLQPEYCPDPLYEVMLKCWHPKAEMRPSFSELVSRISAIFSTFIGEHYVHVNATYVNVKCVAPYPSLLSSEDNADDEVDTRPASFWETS

[3] = system: HCT116 cells and MKN45 cells; assay: Test C: measurement of cell proliferation by 14C-thymidine pulse; format: cell-based; details: 14C-thymidine incorporation, 96 h of treatment; cell line not given
Protocol: The cells are seeded into Cytostar 96-well plates in 180 μl for 4 hours at 37° C. and 5% CO2: HCT116 cells in a proportion of 2500 cells per well in DMEM medium+10% foetal calf serum+1% L-glutamine, and MKN45 cells in a proportion of 7500 cells per well in RPMI medium+10% foetal calf serum+1% L-glutamine. After these 4 hours of incubation, the products are added in 10 μl as a […] concentrated solution according to the dilution method mentioned for the ELISA. The products are tested at 10 concentrations in duplicate from 10 000 nM to 0.3 nM with an increment of 3.
After treatment for 72 h, 10 μl of ^14C-thymidine at 10 μCi/ml are added so as to obtain 0.1 μCi per well. The ^14C-thymidine incorporation is measured on a Micro-Beta machine (Perkin-Elmer) after 24 hours of pulse and 96 h of treatment.
All the steps of the assay are automated on BIOMEK 2000 or TECAN stations.

| Structure (SMILES) | IC50 [1] [nM] | IC50 [2] [nM] | IC50 [3] [nM] | melting point [°C] |
| --- | --- | --- | --- | --- |
| O=C(Nc1nc2ccc(Sc3nnc4ccc(-c5cnn(CCO)c5)cn34)cc2s1)C1CC1 [Example 15, N-(6-{[6-(1-(2-hydroxyethyl)-1H-pyrazol-4-yl)[1,2,4]triazolo[4,3-a]pyridin-3-yl]sulphanyl}-1,3-benzothiazol-2-yl)cyclopropanecarboxamide] | < 100 | < 100 | < 1000 | – |
| O=C(Nc1nc2ccc(Sc3nnc4ccc(-c5cnn(C6CCNCC6)c5)cn34)cc2s1)C1CC1 (as salt: hydrochloride) [Example 16, N-(6-{[6-(1-piperidin-4-yl-1H-pyrazol-4-yl)[1,2,4]triazolo[4,3-a]pyridin-3-yl]sulphanyl}-1,3-benzothiazol-2-yl)cyclopropanecarboxamide] | – | – | – | > 260 |
| O=C(Nc1nc2ccc(Sc3nnc4ccccn34)cc2s1)C1CC1 [Example 2, N-[6-([1,2,4]triazolo[4,3-a]pyridin-3-ylsulphanyl)-1,3-benzothiazol-2-yl]cyclopropanecarboxamide] | > 500 | < 100 | < 1000 | 187 to 190 |
| O=C(Nc1nc2ccc(Sc3nnc4ccc(-c5cnn(CCOC6CCCCO6)c5)cn34)cc2s1)C1CC1 (stereo not shown) [Example 14, N-(6-{[6-(1-[2-(tetrahydro-2H-pyran-2-yloxy)ethyl]-1H-pyrazol-4-yl)[1,2,4]triazolo[4,3-a]pyridin-3-yl]sulphanyl}-1,3-benzothiazol-2-yl)cyclopropanecarboxamide] | < 100 | < 100 | < 1000 | – |
| Nc1nc2ccc(Sc3nnc4ccccn34)cc2s1 [Example 1, 6-([1,2,4]triazolo[4,3-a]pyridin-3-ylsulphanyl)-1,3-benzothiazol-2-amine] | – | < 500 | – | 260 to 266 |
| O=C(Nc1nc2ccc(Sc3nnc4ccc(-c5cn[nH]c5)cn34)cc2s1)C1CC1 [Example 11, N-(6-{[6-(1H-pyrazol-4-yl)[1,2,4]triazolo[4,3-a]pyridin-3-yl]-sulphanyl}-1,3-benzothiazol-2-yl)cyclopropanecarboxamide] | < 100 | < 100 | < 1000 | > 260 |
| Nc1nc2ccc(Sc3nnc4ccc(I)cn34)cc2s1 [Example 6, 6-[(6-iodo[1,2,4]triazolo[4,3-a]pyridin-3-yl)sulphanyl]-1,3-benzothiazol-2-amine] | – | < 100 | < 1000 | – |
| CN1CCN(CCNC(=O)Nc2nc3ccc(Sc4nnc5ccccn45)cc3s2)CC1 [Example 4, 1-[2-(4-methylpiperazin-1-yl)ethyl]-3-[6-([1,2,4]triazolo[4,3-a]pyridin-3-ylsulphanyl)-1,3-benzothiazol-2-yl]urea] | < 100 | < 100 | < 1000 | 180 to 185 |
| O=C(Nc1nc2ccc(Sc3nnc4ccc(-c5ccc(F)cc5)cn34)cc2s1)C1CC1 [Example 8, N-{6-[6-(4-fluorophenyl)[1,2,4]triazolo[4,3-a]pyridin-3-ylsulphanyl]-1,3-benzothiazol-2-yl}cyclopropanecarboxamide] | < 100 | < 100 | < 1000 | – |
| O=C(Nc1nc2ccc(Sc3nnc4ccc(-c5cnn(C6CCNCC6)c5)cn34)cc2s1)C1CC1 [Example 16, N-(6-{[6-(1-piperidin-4-yl-1H-pyrazol-4-yl)[1,2,4]triazolo[4,3-a]pyridin-3-yl]sulphanyl}-1,3-benzothiazol-2-yl)cyclopropanecarboxamide] | < 100 | < 100 | < 1000 | – |

Now from value to compound:

| IC50 [1] [nM] | IC50 [2] [nM] | IC50 [3] [nM] | melting point [°C] | Structure (SMILES) |
| --- | --- | --- | --- | --- |
| > 500 | < 100 | < 1000 | – | Cn1cc(-c2ccc3nnc(Sc4ccc5nc(N)sc5c4)n3c2)cn1 [Example 9, 6-{[6-(1-methyl-1H-pyrazol-4-yl)[1,2,4]triazolo[4,3-a]pyridin-3-yl]sulphanyl}-1,3-benzothiazol-2-amine] |
| < 100 | < 100 | < 1000 | 191 | Cc1ccc(-c2ccc3nnc(Sc4ccc5nc(NC(=O)C6CC6)sc5c4)n3c2)cc1F [Example 12, N-(6-{[6-((3-fluoro-4-methyl)phenyl)[1,2,4]triazolo[4,3-a]pyridin-3-yl]sulphanyl}-1,3-benzothiazol-2-yl)cyclopropanecarboxamide] |
| < 100 | < 100 | < 1000 | – | Cn1cc(-c2ccc3nnc(Sc4ccc5nc(NC(=O)C6CC6)sc5c4)n3c2)cn1 [Example 10, N-(6-{[6-(1-methyl-1H-pyrazol-4-yl)[1,2,4]triazolo[4,3-a]pyridin-3-yl]sulphanyl}-1,3-benzothiazol-2-yl)cyclopropanecarboxamide] |
| < 100 | < 100 | < 1000 | > 264 | Nc1nc2ccc(Sc3nnc4ccc(-c5ccc(F)cc5)cn34)cc2s1 [Example 7, 6-{[6-(4-fluorophenyl)[1,2,4]triazolo[4,3-a]pyridin-3-yl]sulphanyl}-1,3-benzothiazol-2-amine] |
